This assay deals with T1, Aβ42 (Homo sapiens, UniProt P05067).
T1 construct: The recombinant Aβ (M1-42) peptide; made in house; host or cells: E. coli BL21 Gold (DE3)
The assay is described as follows: ThT-based Aβ42 aggregation kinetics under quiescent (unseeded) conditions. Type of assay: biochemical. The procedure:
Solutions of monomeric peptides were prepared by dissolving the lyophilized Aβ42 peptide in 6 M GuHCl. Monomeric forms were purified from potential oligomeric species and salt using a Superdex 75 10/300 GL column (GE Healthcare) at a flowrate of 0.5 mL/min, and were eluted in 20 mM sodium phosphate buffer, pH 8 supplemented with 200 μM EDTA and 0.02% NaN3. The center of the peak was collected and the peptide concentration was determined from the absorbance of the integrated peak area using ε280=1400 l mol^−1 cm^−1. The obtained monomer was diluted with buffer to the desired concentration and supplemented with 20 μM Thioflavin T (ThT) from a 1 mM stock. All samples were prepared in low binding eppendorf tubes on ice using careful pipetting to avoid introduction of air bubbles. Each sample was then pipetted into multiple wells of a 96-well half-area, low-binding, clear bottom and PEG coating plate (Corning 3881), 80 μL per well.
We verified that the addition of 1% DMSO in the reaction mixture has no effect on Aβ42 aggregation.
Assays were initiated by placing the 96-well plate at 37° C. under quiescent conditions in a plate reader (Fluostar Omega, Fluostar Optima or Fluostar Galaxy, BMGLabtech, Offenburg, Germany). The ThT fluorescence was measured through the bottom of the plate with a 440 nm excitation filter and a 480 nm emission filter. The ThT fluorescence was followed for three repeats of each sample.
The time evolution of the total fibril mass concentration, M(t), is described by the following integrated rate law (30, 32)
[formula] where the kinetic parameters B±, C±, κ, κ∞ and ? are functions of the two ? combinations of the microscopic rate constants k+k2 and knk2, where kn, k+ and k2 are the primary nucleation, elongation and secondary nucleation rate constants, respectively.
The time evolution of the total fibril mass concentration, M(t), is described by the following integrated rate law
[formula] where the kinetic parameters B±, C±, κ, κ∞ and ? are functions of the two combinations of the microscopic rate constants k+k2 and knk2, where kn, k+ and k2 are the primary nucleation, elongation and secondary nucleation rate constants, respectively. Aβ42 alone in 1% DMSO was first modeled to obtain the k+k2 and knk2 combined microscopic rate constants.
With the introduction of different small molecules, the aggregation process can be inhibited by one or more individual microscopic reactions. Microscopic rate constants k+k2 and knk2 were obtained in the presence of the molecules, and compared to the initial values of Aβ42 alone. This comparison allows one to understand which rate was mainly perturbed, as well as the potency of the compounds (by relative changes of their microscopic rates) with respect to each other.

Where [1] appears, read: 2 μM Aβ42, 4-fold excess of compound.

T1 sequence (P05067 671-713): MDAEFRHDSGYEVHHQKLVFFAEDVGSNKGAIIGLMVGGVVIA

On to `C=C(c1ccc(C(=O)O)cc1)c1cc2c(cc1C)C(C)(C)CCC2(C)C` [bexarotene], for which, under setting [1], the “increase of time to half-completion compared to Aβ42 alone” value was “factor of two” and the “time to half-completion of the aggregation reaction” value was found to be 4.50 ± 0.06 h. The “time for which unseeded aggregation was completely inhibited” value (2 μM Aβ42, 10-fold excess) was determined as 15 h. In addition, where the note is “5 μM Aβ42, 5-25 μM bexarotene”, the “effect on secondary pathways (k2k+)” value is recorded as “no (or very little) detectable effect” and the “primary nucleation rate constant kn” value was “specifically decreased”. In addition, where the note is “increasing concentrations of bexarotene”, the “effect on Aβ42 aggregation” value was “progressive delay”.
